{"source": "patent US9642861B2", "about": "“Methods of treating oral mucositis” (priority 2006, dated 2017)", "system": "oral mucositis induced in hamsters by acute radiation (40 Gy to left buccal cheek pouch)", "assay": "ACT-02 (Example 1): acute radiation model of oral mucositis in hamsters, mucositis scoring", "assay_type": "in vivo, Syrian Golden Hamsters", "design": "peak mucositis score (mean daily score): scale not given here", "text": "The objective of this study is to evaluate the effect of M40403, administered by either ip or topical routes, with 2 different schedules, on the frequency, severity and duration of oral mucositis induced in hamsters by acute radiation.\nThe acute radiation model in hamsters, developed by the Principal Investigator, has proven to be an accurate, efficient and cost-effective technique to provide a preliminary evaluation of anti-mucositis compounds (9). The course of mucositis in this model is well defined and results in peak scores approximately 14-16 Days following radiation. The acute model has little systemic toxicity, resulting in few hamster deaths, thus permitting the use of smaller groups (N=7-8) for initial efficacy studies. It has also been used to study specific mechanistic elements in the pathogenesis of mucositis. Molecules that show efficacy in the acute radiation model may be further evaluated in the more complex models of fractionated radiation, chemotherapy, or concomitant therapy.\nIn this study, an acute radiation dose of 40 Gy on day 0 was administered locally to the cheek pouch. Clinically significant mucositis was observed on days 12 through 28.\nForty-eight male Syrian Golden Hamsters were divided randomly into 6 groups of 8 animals and given an acute radiation dose of 40 Gy directed to their left buccal cheek pouch. This was accomplished by anesthetizing the animals and everting the left buccal pouch, while protecting the rest of the animal with a lead shield. Test materials were given topically or by ip injection twice daily as detailed in Table 1. Mucositis was evaluated clinically starting on Day 6, and continued on alternate days until day 28.\nThe grade of mucositis was scored, beginning on day 6, and for every second day thereafter, through and including day 28 (for scoring scheme, see Table 2 and FIG. 2). The effect on mucositis of each drug treatment compared to ip vehicle-treated controls was assessed according to the following parameters:\nThe difference in the number of days hamsters in each group have ulcerative (score≧3) mucositis.\nOn each evaluation day, the number of animals with a blinded mucositis score of ≧3 in each drug treatment group was compared to the vehicle-treated control group. Differences were compared on a cumulative basis and statistical significance was determined by chi-square analysis. Efficacy, in this analysis, is defined as a significant reduction in the number of days that a group of animals had ulcerations (scores ≧3) when compared to the control group.\nFor each evaluation day the scores of the control group were compared to those of the treated groups using non-parametric rank sum analysis. Treatment success was considered as a statistically significant lowering of scores in the treated group on 2 or more days from day 6 to day 28.\nAll forty-eight (48) male Syrian Golden Hamsters were given an acute radiation dose of 40 Gy directed to their left buccal cheek pouch. This was accomplished by anesthetizing the animals and everting the left buccal pouch, while protecting the rest of the animal with a lead shield. Test materials were given either topically or by ip injection twice daily as detailed in Table 1. Mucositis was evaluated clinically starting on day 6, and continuing on alternate days until day 28. The study timeline is depicted in FIG. 1. Dose levels were determined based on the results of a previous acute toxicity study (data not shown), and the levels shown in Table 1.\nMucositis was induced using a standardized acute radiation protocol. A single dose of radiation (40 Gy/dose) was administered to all animals on day 0. Radiation was generated with a 250 kilovolt potential (15-ma) source at a focal distance of 50 cm, hardened with a 0.35 mm Cu filtration system. Irradiation targeted the left buccal pouch mucosa at a rate of 3.2 Gy/minute. Prior to irradiation, animals were anesthetized with an intra-peritoneal injection of Ketamine (160 mg/kg) and Xylazine (8 mg/kg). […]", "key": {"[1]": {"conditions": "group 2: ip 3 mg/kg bid day −1 to 15"}, "[2]": {"conditions": "group 3: ip 30 mg/kg bid day −1 to 15"}, "[3]": {"conditions": "group 4: top 3 mg/ml bid, 0.2 ml per dose, day −1 to 15"}, "[4]": {"conditions": "group 5: top 30 mg/ml bid, 0.2 ml per dose, day −1 to 15"}, "[5]": {"conditions": "group 6: ip 30 mg/kg bid day −1 to 3"}}, "note": "“Also recorded” adds a separate entry of the source."}
{"compound": "[Cl-].[Cl-].[Mn+2].c1cc2nc(c1)CN[C@@H]1CCCC[C@H]1NCCN[C@@H]1CCCC[C@H]1NC2", "note": "[M40403]", "values": [{"measurement": "Chi Sq v control, days with mucositis score >=3", "setting": "[1]", "value": 0.3440}, {"measurement": "Days <3 (animal days with a mucositis score below 3)", "setting": "[1]", "value": 126}, {"measurement": "Days >=3 (animal days with a mucositis score of 3 or more)", "setting": "[1]", "value": 66}, {"measurement": "day of peak mucositis score", "setting": "[1]", "value": 18, "unit": "days"}, {"measurement": "peak mucositis score (mean daily score)", "setting": "[1]", "value": 2.8}, {"measurement": "progression of mucositis severity compared with control group", "setting": "[1]", "value": "very similar to that observed in the control group"}, {"measurement": "Chi Sq v control, days with mucositis score >=3", "setting": "[2]", "value": 0.9890}, {"measurement": "Days <3 (animal days with a mucositis score below 3)", "setting": "[2]", "value": 96}, {"measurement": "Days >=3 (animal days with a mucositis score of 3 or more)", "setting": "[2]", "value": 56}, {"measurement": "day of peak mucositis score", "setting": "[2]", "value": 18, "unit": "days"}, {"measurement": "peak mucositis score (mean daily score)", "setting": "[2]", "value": 3.0}, {"measurement": "progression of mucositis severity compared with control group", "setting": "[2]", "value": "indistinguishable from that observed in groups 1 and 2"}, {"measurement": "progression of mucositis severity compared with control group", "setting": "group 4: top 3 mg/ml bid day −1 to 15", "value": "closely paralleled those in the control group"}, {"measurement": "Chi Sq v control, days with mucositis score >=3", "setting": "[3]", "value": 1.6760}, {"measurement": "Days <3 (animal days with a mucositis score below 3)", "setting": "[3]", "value": 119}, {"measurement": "Days >=3 (animal days with a mucositis score of 3 or more)", "setting": "[3]", "value": 73}, {"measurement": "progression of mucositis severity compared with control group", "setting": "group 5: top 30 mg/ml bid day −1 to 15", "value": "showed a reduction of mucositis severity on day 10; also recorded: only slightly less than those in the control group"}, {"measurement": "Chi Sq v control, days with mucositis score >=3", "setting": "[4]", "value": 0.136}, {"measurement": "Days <3 (animal days with a mucositis score below 3)", "setting": "[4]", "value": 128}, {"measurement": "Days >=3 (animal days with a mucositis score of 3 or more)", "setting": "[4]", "value": 64}, {"measurement": "Chi Sq v control, days with mucositis score >=3", "setting": "[5]", "value": 7.83}, {"measurement": "Days <3 (animal days with a mucositis score below 3)", "setting": "[5]", "value": 120}, {"measurement": "Days >=3 (animal days with a mucositis score of 3 or more)", "setting": "[5]", "value": 24}, {"measurement": "day of peak mucositis score", "setting": "[5]", "value": 14, "unit": "days"}, {"measurement": "peak mucositis score (mean daily score)", "setting": "[5]", "value": 3.0}, {"measurement": "progression of mucositis severity compared with control group", "setting": "group 6: ip 30 mg/kg bid day −1 to 3, from day 16 to day 28", "value": "decreased much more rapidly than the control group"}, {"measurement": "effect of topical dosing on weight and mucositis severity", "setting": "topical dosing, 3 or 30 mg/ml bid day −1 to 15, formulation used here", "value": "did not appear to have any effect on either weight or mucositis severity"}]}
